Data: PubChem BioAssay (NCI)
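Briefly, cells in 96-well plates were exposed to five compound concentrations for 48 h, and endpoints were estimated by linear interpolation. At the TGI there is no net growth.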

Tests used:
Test in all cases: growth of human tumour cells (NCI), 48 h
[1] = system: NCI-H23 lung
[2] = system: SF-539 CNS
[3] = system: LOX IMVI melanoma
[4] = system: HS 578T breast
[5] = system: HL-60(TB) leukemia
[6] = system: OVCAR-8 ovarian
[7] = system: K-562 leukemia
[8] = system: ACHN renal
[9] = system: M14 melanoma
[10] = system: SN12C renal
[11] = system: NCI/ADR-RES ovarian
[12] = system: MDA-N
[13] = system: OVCAR-3 ovarian
[14] = system: SR leukemia
[15] = system: UACC-62 melanoma
[16] = system: COLO 205 colon
[17] = system: UACC-257 melanoma
[18] = system: OVCAR-5 ovarian
[19] = system: MALME-3M melanoma
[20] = system: PC-3 prostate
[21] = system: SNB-19 CNS
[22] = system: SK-MEL-28 melanoma
[23] = system: SK-OV-3 ovarian
[24] = system: 786-0 renal
[25] = system: SW-620 colon
[26] = system: KM12 colon
[27] = system: MDA-MB-231 breast
[28] = system: EKVX NSCLC
[29] = system: U251 CNS
[30] = system: SF-268 CNS
[31] = system: RXF 393 renal
[32] = system: MOLT-4 leukemia
[33] = system: HOP-62 NSCLC
[34] = system: MCF7 breast
[35] = system: HCT-15 colon
[36] = system: CAKI-1 renal
[37] = system: HOP-92 NSCLC
[38] = system: A498 renal
[39] = system: DU-145 prostate
[40] = system: HT29 colon
[41] = system: CCRF-CEM leukemia
[42] = system: SNB-75 CNS
[43] = system: SF-295 CNS
[44] = system: SK-MEL-2 melanoma
[45] = system: BT-549 breast
[46] = system: RPMI-8226 leukemia
[47] = system: T-47D breast
[48] = system: SK-MEL-5 melanoma
[49] = system: HCC-2998 colon
[50] = system: MDA-MB-435
[51] = system: HCT-116 colon
[52] = system: NCI-H226 lung
[53] = system: UO-31 renal
[54] = system: NCI-H460 lung
[55] = system: A549 NSCLC
[56] = system: OVCAR-4 ovarian
[57] = system: TK-10 renal
[58] = system: NCI-H522 lung
[59] = system: IGROV1 ovarian

CCOC(=O)C(Cc1c2ccccc2cc2ccccc12)(NC(C)=O)C(=O)OCC
TGI [1]: > 100 µM | TGI [2]: > 100 µM | TGI [3]: > 100 µM | TGI [4]: > 100 µM | TGI [5]: > 100 µM | TGI [6]: > 100 µM | TGI [7]: > 100 µM | TGI [8]: > 100 µM | TGI [9]: > 100 µM | TGI [10]: > 100 µM | TGI [11]: > 100 µM | TGI [12]: > 100 µM | TGI [13]: > 100 µM | TGI [14]: > 100 µM | TGI [15]: > 80.9 µM | TGI [16]: > 100 µM | TGI [17]: > 100 µM | TGI [18]: > 100 µM | TGI [19]: > 100 µM | TGI [20]: > 100 µM | TGI [21]: > 100 µM | TGI [22]: > 100 µM | TGI [23]: > 100 µM | TGI [24]: > 100 µM | TGI [25]: > 100 µM | TGI [26]: > 100 µM | TGI [27]: > 100 µM | TGI [28]: > 100 µM | TGI [29]: > 100 µM | TGI [30]: > 100 µM | TGI [31]: > 100 µM | TGI [32]: > 90.1 µM | TGI [33]: > 100 µM | TGI [34]: > 100 µM | TGI [35]: > 100 µM | TGI [36]: > 100 µM | TGI [37]: 83.1 µM | TGI [38]: > 100 µM | TGI [39]: > 100 µM | TGI [40]: > 100 µM | TGI [41]: > 100 µM | TGI [42]: > 80.6 µM | TGI [43]: > 100 µM | TGI [44]: > 100 µM | TGI [45]: > 100 µM | TGI [46]: > 100 µM | TGI [47]: > 100 µM | TGI [48]: > 100 µM | TGI [49]: > 100 µM | TGI [50]: > 100 µM | TGI [51]: > 100 µM | TGI [52]: > 100 µM | TGI [53]: > 100 µM | TGI [54]: > 100 µM | TGI [55]: > 100 µM | TGI [56]: > 100 µM | TGI [57]: > 100 µM | TGI [58]: > 100 µM | TGI [59]: > 100 µM
